The text below walks through data of patent US10696689B2, “Somatostatin modulators and uses thereof” (CRINETICS PHARMACEUTICALS, INC., priority 2018, dated 2020).

Each structure is given as a SMILES string. Where only a bound is given, the exact number is not on record here.

For one data set, the system named is hSSTR2 vs. hSSTR4. Nature of the data set: Selectivity for inhibition of cAMP via hSSTR2 vs. hSSTR4. Format: cell-based, human. The following applies: Table C. An excerpt:
(§1) General overview: All five SSTR subtypes are Gi coupled G-protein coupled receptors (GPCRs) that lead to decreases in intracellular cyclic AMP (cAMP) when activated by an agonist. Therefore, measurement of intracellular cAMP levels can be used to assess whether compounds of the invention are agonists of SSTR subtypes (John Kelly, Troy Stevens, W. Joseph Thompson, and Roland Seifert, Current Protocols in Pharmacology, 2005, 2.2.1-2.2). One example of an intracellular cAMP assay is described below.
(§2) Four days prior to the assay, 5,000 Chinese hamster ovary cells (CHO-K1, ATCC # CCL-61) stably expressing the human somatostatin receptor subtype 2 are plated in each well of a 96-well tissue culture-treated plate in Ham's F12 growth media (ThermoFisher #10-080-CM) supplemented with 10% donor bovine serum (Gemini Bio-Products #100-506), 100 U/mL penicillin; 100 ug/mL streptomycin; 2 mM L-glutamine (Gemini Bio-Products #400-110) and 0.2 mg/mL hygromycin B (GoldBio #31282-04-9). The cells are cultured at 37° C., 5% CO2 and 95% humidity. On the day of the assay, the media is aspirated and the cells are treated with 50 μL of 1.6 μM NKH477 (Sigma # N3290) plus various dilutions of compounds of the invention in assay buffer [1× Hank's Balanced Salt Solution (ThermoFisher # SH3058802), 0.5 mM HEPES pH 7.4, 0.1% bovine serum albumin, 0.2 mM 3-Isobutyl-1-methylxanthine (IBMX, VWR #200002-790)]. The cells are incubated for 20 minutes at 37° C. (the final concentration of the compounds of the invention are typically 0-10,000 nM). The cells are treated with 50 μL of lysis buffer (HRTF cAMP kit, Cisbio). The lysate is transferred to 384-well plates and cAMP detection and visualization antibodies are added and incubated for 1-24 hours at room temperature. The time-resolved fluorescent signal is read with a Tecan M1000Pro multiplate reader. The intracellular cAMP concentrations are calculated by regression to a standard curve and are plotted vs. the concentration of the compounds of the invention and the EC50 of the compounds are calculated using standard methods. All data manipulations are in GraphPad Prism v6.

Data set [1] is described as follows: Liver microsomal stability assay. Format: in vitro ADME. The following applies: human liver microsomes 0.5 mg/mL, 1 μM compound, 37° C. The protocol:
The in vitro stabilities of compounds of interest were determined for various species using pooled male and female human, pooled male Sprague-Dawley rat, pooled male Cynomolgus monkey, and pooled male Beagle dog liver microsomes at microsomal protein concentrations of 0.5 mg/mL. Incubations were carried out in a potassium phosphate buffer (50 mM). The NADPH-generating system was composed of NADP+ (1 mM), magnesium chloride (3 mM), EDTA (1 mM), glucose-6-phosphate (5 mM) and glucose-6-phosphate dehydrogenase (1 Unit/mL) for all experiments. Compounds of interest in DMSO were added to achieve a final incubation concentration of 1 μM (final DMSO content was 0.1% v/v and final acetonitrile content was 0.9%). The final incubation volume was 400 μL. Incubations were conducted at 37° C. for 0, 5, 10, 20, 40 and 60 minutes in a shaking water bath and terminated by removing 50 μL of incubation mixture and adding to 100 μL of ice cold acetonitrile containing internal standard. Following precipitation by centrifugation at 3500 rpm and 4° C. for 30 minutes, compounds of interest and internal standard were analyzed in the resultant supernatant using a multiple reaction monitoring (MRM) LC-MS/MS method. MS conditions were optimized for each analyte.
The following Table (Table D) illustrates human liver microsomal stability of exemplary compounds.
(Liver microsomes are vesicles of endoplasmic reticulum, rich in cytochrome P450 enzymes.)

Data set [2] deals with human SST2 receptor (SSTR2) (Homo sapiens (Human), UniProt P30874). Nature of the data set: cAMP assay: inhibition of cAMP via human SST2 receptor in CHO-K1 cells. It is filed as cell-based. The conditions noted are these: CHO-K1 cells stably expressing human SSTR2, NKH477 stimulated.
Text: as §1, §2
A general note: Changes in cAMP serve as a functional read-out for many G protein-coupled receptors.

Sequence of human SST2 receptor (SSTR2) (P30874 whole entry): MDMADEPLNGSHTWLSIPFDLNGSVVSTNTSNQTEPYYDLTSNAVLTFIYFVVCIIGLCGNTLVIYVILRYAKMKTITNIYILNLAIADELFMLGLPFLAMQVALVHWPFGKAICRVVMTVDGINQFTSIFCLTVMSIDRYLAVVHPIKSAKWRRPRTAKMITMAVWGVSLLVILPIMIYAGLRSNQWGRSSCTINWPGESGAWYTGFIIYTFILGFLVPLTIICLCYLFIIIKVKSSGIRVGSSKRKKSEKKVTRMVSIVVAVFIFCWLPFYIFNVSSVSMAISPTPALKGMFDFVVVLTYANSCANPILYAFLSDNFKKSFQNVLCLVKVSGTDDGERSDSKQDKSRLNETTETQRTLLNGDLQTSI

For the molecule `Nc1ncc(-c2cccc(F)c2)c(N2CC[C@@H]3NCCO[C@H]3C2)c1-c1nc2c(F)cc(F)cc2[nH]1` [Compound 3-3, 4-[(4αS,8αS)-octahydro-1H-pyrido[3,4-b][1,4]oxazin-6-yl]-3-(4,6-difluoro-1H-1,3-benzodiazol-2-yl)-5-(3-fluorophenyl)pyridin-2-amine], the “hSST4/hSST2 (ratio)” value in the data set on hSSTR2 vs. hSSTR4 is “c (c = between 2.5 and 15;)”. The “HLM t1/2” value in data set [1] was determined as 3.85 h. The EC50 – broadly, the midpoint of the concentration-response curve – in data set [2] is 0.1 to 1 nM.
Regarding `COc1cc(C#N)cc2[nH]c(-c3c(N)ncc(-c4cccc(F)c4)c3N3CC[C@@H]4NCCO[C@H]4C3)nc12` [Compound 3-11, 2-{4-[(4αS, 8αS)-octahydro-1H-pyrido[3,4-b][1,4]oxazin-6-yl]-2-amino-5-(3-fluorophenyl)pyridin-3-yl}-4-methoxy-1H-1,3-benzodiazole-6-carbonitrile], the “hSST4/hSST2 (ratio)” value in the data set with hSSTR2 vs. hSSTR4 is reported as “a (a = above 50,)”. In addition, the “HLM t1/2” value in data set [1] is above 11.6 h. The concentration for a half-maximal effect (EC50) in data set [2] lay in the range of 0.1 to 1 nM.
In the case of `COc1cc(C#N)cc2[nH]c(-c3c(N)ncc(-c4cc(F)cc(F)c4)c3N3CC[C@@H]4NCCO[C@H]4C3)nc12` [Compound 3-18, 2-{4-[(4αS,8αS)-octahydro-1H-pyrido[3,4-b][1,4]oxazin-6-yl]-2-amino-5-(3,5-difluorophenyl)pyridin-3-yl}-4-methoxy-1H-1,3-benzodiazole-6-carbonitrile], the “hSST4/hSST2 (ratio)” value in the data set with hSSTR2 vs. hSSTR4 is “b (b = bewteen 15 and 50;)”. In data set [1], the “HLM t1/2” value turned out to be 1.65 h. In data set [2], this molecule came in with an EC50 of 0.1 to 1 nM.
Take `N#Cc1cc(F)c2nc(-c3c(N)ncc(-c4cc(F)cc(F)c4)c3N3CC[C@@H]4OCCN[C@H]4C3)[nH]c2c1` [Compound 3-19, 2-{4-[(4αS,8αS)-octahydro-1H-pyrido[3,4-b][1,4]oxazin-6-yl]-2-amino-5-(3,5-difluorophenyl)pyridin-3-yl}-4-fluoro-1H-1,3-benzodiazole-6-carbonitrile]: the “hSST4/hSST2 (ratio)” value in the data set with hSSTR2 vs. hSSTR4 is “b (b = bewteen 15 and 50;)”. Also, the “HLM t1/2” value in data set [1] is 5.78 h. For the same molecule, in data set [2], the concentration giving a half-maximal response (EC50) lay in the range of 0.1 to 1 nM.
